Experimental data reported in patent publication US20260206761A1, “HETEROARYL-TRIAZOLE COMPOUNDS AS PESTICIDES” (Bayer Aktiengesellschaft, priority 2019, published 2026).

How the values were obtained:
Assay type in all cases: in vivo
[1] = test system: Rhipicephalus microplus larvae (strain Parkhurst, resistant against synthetic pyrethroids); test: Rhipicephalus (Boophilus) microplus in-vitro contact test, larval cattle tick; conditions: after 48 hours, read-out: activity (efficacy: larvae dead or moribund); for pest or weed control at 100 g/ha: application rate 1 pg/cm^2 (=100 g/ha); for pest or weed control at 500 g/ha: application rate 5 pg/cm^2 (=500 g/ha)
Experimental: Rhipicephalus (Boophilus) microplus—In-Vitro Contact Tests Larval Cattle Tick (Strain Parkhurst. Resistant Against Synthetic Pyrethroids)
(§1) 9 mg compound is solved in 1 mL acetone and diluted with acetone to the desired concentration. 250 μL of the test solution is filled in 25 mL glass test tubes and homogeneously distributed on the inner walls by rotation and tilting on a shaking device (2 h at 30 rpm). With a compound concentration of 900 ppm, an inner surface of 44.7 cm^2 and a homogeneous distribution, a dose of 5 μg/cm^2 is achieved.
After the solvent has evaporated, each test tube is filled with 20-50 cattle tick larvae (Rhipicephalus microplus), closed with a perforated lid and incubated in a horizontal position at 85% relative humidity and 27° C. in an incubator. After 48 hours efficacy is determined. The larvae are patted on the ground of the tubes and negative geotactic behaviour is recorded.
An efficacy of 100% means all larvae are dead or moribund; 0% means no larvae are dead or moribund.

[2] = test system: adult engorged female ticks (Rhipicephalus microplus); test: Rhipicephalus (Boophilus) microplus injection test; conditions: 168 h, egg deposition after 7 days, read-out: activity (efficacy: infertile eggs); for pest or weed control at 4 pg: application rate 4 pg/animal; for pest or weed control at 0.02 mg: application rate 20 μg/animal
Experimental: Rhipicephalus (Boophilus) microplus—Injection Test
(§2) Solvent: dimethyl sulfoxide
To produce a suitable preparation of active compound, 10 mg of active compound are dissolved in 0.5 mL solvent, and the concentrate is diluted with solvent to the desired concentration.
Five adult engorged female ticks (Rhipicephalus microplus) are injected with 1 μL compound solution into the abdomen. The ticks are transferred into replica plates and incubated in a climate chamber.
After 7 days egg deposition of fertile eggs is monitored. Eggs where fertility is not visible are stored in a climate chamber till hatching after about 42 days. An efficacy of 100% means all eggs are infertile; 0% means all eggs are fertile.

[3] = test system: adult unfed cat fleas (Ctenocephalides felis); test: Ctenocephalides felis oral test; conditions: 48 h, read-out: activity (mortality)
Experimental: Ctenocephalides felis—Oral Test
as §2
To produce a suitable preparation of active compound, 10 mg of active compound are dissolved in 0.5 mL solvent, and the concentrate is diluted with cattle blood to the desired concentration.
Approximately 20 adult unfed cat fleas (Ctenocephalides felis) are placed in flea chambers. The blood chamber, sealed with parafilm on the bottom, are filled with cattle blood supplied with compound solution and placed on the gauze covered top of the flea chamber, so that the fleas are able to suck the blood. The blood chamber is heated to 37° C. whereas the flea chamber is kept at room temperature.
After 2 days mortality in % is determined. 100% means all the fleas have been killed; 0% means none of the fleas have been killed.

[4] = test system: larvae of the banded cucumber beetle (Diabrotica balteata); test: Diabrotica balteata spray test; conditions: 168 h, after 7 days, read-out: activity (efficacy: seedlings grown); for pest or weed control at 100 g/ha: application rate 100 g/ha (=32 pg/well); for pest or weed control at 500 g/ha: application rate 500 g/ha (=160 pg/well)
Experimental: Diabrotica balteata—spray test
Solvent: 78.0 parts by weight of acetone • • 1.5 parts by weight of dimethylformamide
(§3) Emulsifier: alkylarylpolyglycol ether
(§4) To produce a suitable preparation of active compound, 1 part by weight of active compound is mixed with the stated amount of solvent, and the concentrate is diluted with water, containing an emulsifier concentration of 1000 ppm, to the desired concentration. Further test concentrations are prepared by dilution with emulsifier containing water.
Soaked wheat seeds (Triticum aestivum) are placed in a multiple well plate filled with agar and some water and are incubated for 1 day to germinate (5 seeds per well). The germinated wheat seeds are sprayed with a test solution containing the desired concentration of the active ingredient. Afterwards each unit is infected with 10-20 larvae of the banded cucumber beetle (Diabrotica balteata).
After 7 days efficacy in % is determined. 100% means all the seedlings have grown up like in the untreated, uninfected control; 0% means none of the seedlings have grown.

[5] = test system: green peach aphid (Myzus persicae); test: Myzus persicae oral test; conditions: 120 h, application rate 4 ppm, after 5 days
Experimental: Solvent: 100 parts by weight acetone
To produce a suitable preparation of active compound, 1 part by weight of active compound is mixed with the stated amount of solvent, and the concentrate is diluted with water to the desired concentration.
50 μL compound solution is filled in microtiter plates and 150 μL IPL41 insect medium (33%+15% sugar) is added to obtain a total volume of 200 μL per well. Afterwards the plates are sealed with parafilm through which a mixed population of the green peach aphid (Myzus persicae) can suck on the compound preparation.
After 5 days mortality in % is determined. 100% means all aphids have been killed and 0% means none of the aphids have been killed.

[6] = test system: adult brown dog ticks (Rhipicephalus sanguineus); test: Rhipicephalus sanguineus in-vitro contact test, adult brown dog ticks; conditions: after 48 hours, read-out: activity (efficacy: ticks dead or moribund); for pest or weed control at 100 g/ha: application rate 1 pg/cm^2 (=100 g/ha); for pest or weed control at 5 µg/cm2, 500 g/ha: application rate 5 μg/cm^2 (=500 g/ha)
Experimental: Rhipicephalus sanguineus—In-Vitro Contact Tests with Adult Brown Dog Ticks
as §1
After the solvent has evaporated, each test tube is filled with 5-10 adult brown dog ticks (Rhipicephalus sanguineus), closed with a perforated lid and incubated in a lying position at room temperature and relative humidity. After 48 hours efficacy is determined. The ticks are patted on the ground of the tubes and are incubated on a heating plate at 45-50° C. for at most 5 minutes. Immotile or uncoordinated moving ticks, which are not able to escape the heat by climbing upwards, are marked as dead or moribund.
An efficacy of 100% means all ticks are dead or moribund; 0% means no ticks are dead or moribund.

[7] = test system: fall armyworm larvae (Spodoptera frugiperda); test: Spodoptera frugiperda spray test; conditions: 168 h, read-out: activity (mortality)
Experimental: Spodoptera frugiperda—Spray Test
Solvent: 78.0 parts by weight acetone • 1.5 parts by weight dimethylformamide
as §3
as §4, with “solvents” for “solvent,”, “and” for “and the concentrate”
Maize (Zea mays) leaf sections are sprayed with a preparation of the active ingredient of the desired concentration. Once dry, the leaf sections are infested with fall armyworm larvae (Spodoptera frugiperda).
After 7 days mortality in % is determined. 100% means all caterpillars have been killed and 0% means none of the caterpillars have been killed.

[8] = test system: Aedes aegypti strain MONHEIM; test: Aedes aegypti test (AEDSAE surface treatment & contact assay); conditions: 24 hours after contact, read-out: efficacy (mortality); for mortality at 4 mg/m2: surface concentration 4 mg/m^2, exposure 30 minutes
Experimental: Aedes aegypti Test (AEDSAE Surface Treatment & Contact Assay)
Solvent: Aceton+2000 ppm rapeseed oil methyl ester (RME)
In order to produce a sufficient, active ingredient containing solution it is necessary to solve the test compound in the solvent-mix (acetone at 2 mg/ml/RME 2000 ppm). This solution is pipetted onto a glazed tile and after evaporation of the acetone, adult mosquitoes of the species Aedes aegypti strain MONHEIM are placed onto the dried surface. The exposure time is 30 minutes. Mortality in percent (%) is determined 24 hours after contact of the insects to the treated surface. 100% mortality means that all tested insects are dead, whereas 0% means that no insect died.

SMILES	pest or weed control at 100 g/ha [1] [%]	pest or weed control at 500 g/ha [1] [%]	pest or weed control at 4 pg [2] [%]	pest or weed control at 0.02 mg [2] [%]	mortality at 100 ppm [3] [%]	pest or weed control at 100 g/ha [4] [%]	mortality at 4 ppm [5] [%]	pest or weed control at 100 g/ha [6] [%]	pest or weed control at 5 µg/cm2, 500 g/ha [6] [%]	mortality at 100 g/ha [7] [%]	mortality at 500 g/ha [7] [%]	pest or weed control at 500 g/ha [4] [%]	mortality at 4 mg/m2 [8] [%]	mortality at 20 mg/m2 ([8]; surface concentration 20 mg/m^2, exposure 30 minutes) [%]
C[C@H](NC(=O)c1cc(Cl)cc(S(=O)(=O)CC(F)(F)F)c1)c1nc(C2CC2)nn1-c1ncc(Cl)cn1 [I-26]	90	90	100	100	100	100	90							
CC(NC(=O)c1cc(C(F)(F)F)n(C)n1)c1nc(Br)nn1-c1ncccn1 (centres unmarked) [I-39]	100	100	100		100			80	80					
CC(NC(=O)c1cc(Cl)cc(S(C)(=O)=O)c1)c1nc(C(F)F)nn1-c1ccc(C#N)cn1 (centres unmarked) [I-6]	100	100	100	100	100		100			83	100			
Cc1nc([C@H](C)NC(=O)c2csc(Cl)c2)n(-c2cc(C#N)ccn2)n1 [II-19]			100	100	100							100	80 to 100	
COc1nc([C@H](C)NC(=O)c2csc(Cl)c2)n(-c2ccc(C#N)cn2)n1 [I-8]			80	100	80	80						100	80 to 100	80 to 100
C[C@H](NC(=O)c1cc(Cl)cc(C2(C#N)CC2)c1)c1ncnn1-c1nccs1 [II-5]			100	100	100						100	100		
CC(NC(=O)c1cc(Br)cc(C2(C(F)(F)F)CC2)c1)c1nc(Br)nn1-c1ncccn1 (centres unmarked) [I-48]	90	90	100		100		100			100				
CCS(=O)(=O)c1cc(Cl)cc(C(=O)N[C@@H](C)c2nc(C3CC3)nn2-c2ccc(C#N)cn2)c1 [I-20]	100	100	100	100	100	80				100				
CC(NC(=O)c1cc(C(F)(F)F)n(C)n1)c1nc(Cl)nn1-c1ccc(C#N)cn1 (centres unmarked) [I-33]	100	100	80	80	100				80					
C[C@H](NC(=O)c1cc(C(F)(F)F)cc(S(C)(=O)=O)c1)c1ncnn1-c1ccc(S(C)(=O)=O)cn1 [II-56, 3-(methylsulfonyl)-N-[(1S)-1-{1-[5-(methylsulfonyl)pyridin-2-yl]-1H-1,2,4-triazol-5-yl}ethyl]-5-(trifluoromethyl)benzamide]			100		100									
CC(NC(=O)c1cc(C(F)(F)F)n(C)n1)c1nc(Cl)nn1-c1ncccn1 (centres unmarked) [I-31]	100	100	100	100	90		90							
C[C@H](NC(=O)c1cc(Cl)cc(S(=O)(=O)C(F)F)c1)c1nc(C2CC2)nn1-c1ccc(C#N)cn1 [I-27]	100	100	100		100	100				100				
CCCc1nc([C@H](C)NC(=O)c2cc(Cl)cc(S(C)(=O)=O)c2)n(-c2ccc(C#N)cn2)n1 [I-2]	100	100	100	100	100					83	100			
CCCc1nc([C@H](C)NC(=O)c2cc(Cl)cc(C3CC3)c2)n(-c2ccc(C#N)cn2)n1 [I-1]	100	100	100	100	100	100					100	100	80 to 100	
C[C@H](NC(=O)c1cc(Cl)cc(S(C)(=O)=O)c1)c1ncnn1-c1ncc(I)s1 [II-51, 3-chloro-N-{(1S)-1-[1-(5-iodo-1,3-thiazol-2-yl)-1H-1,2,4-triazol-5-yl]ethyl}-5-(methylsulfonyl)benzamide]	100	100	100	100	100	100		80		100				
